Experimental findings from patent US6534534B1, “Pharmaceutical composition active in reducing production of MCP-1 protein” (Aziende Chimiche Riunite Angelini Francesco A.C.R.A.F. …, priority 1997, dated 2003) are described below.

For one assay, the system named is IL-8. The following applies: for IL-8: PBMC, LPS 100 ng/ml, 24 hours, supernatant. As for the experimental part:
(§1) The capability of bindarit to reduce production of MCP-1 by leucocytes (PBMC) stimulated by LPS was evaluated. White blood cells were isolated by centrifugation on a Ficoll gradient and then stimulated with LPS (100 ng/ml) for 24 hours in the presence or absence of scalar concentrations of bindarit. The supernatant fluid was collected at the end and levels of MCP-1 were measured by means of a specific immunoenzymatic test.

The test system of another assay is MCP-1. The following applies: for MCP-1: PBMC, LPS 100 ng/ml, 24 hours, supernatant. As for the experimental part:
as §1

The next assay has as its system mouse air pouch. The conditions noted are these: for Exudate / Leucocytes: bindarit 0.5% in diet for 18 days. As for the experimental part: The action of bindarit was studied in an experimental model in the mouse, the said model being characterized by production of MCP-1, cell infiltration and formation of exudate. Mice were fed ad libitum with a standard diet for rodents or with the same diet with addition of bindarit (0.5%) for 18 days. On the twelfth day, under ether anaesthesia, sterile air (5 ml) was injected under the dorsal skin of the mice to form a sac. On the fifteenth day, again under ether anaesthesia, further sterile air (5 ml) was injected into the pre-formed sac. On the eighteenth day, a sterile physiological solution (1 ml) was injected into the sac thus obtained, or an irritant (1 ml). The said irritant was carrageen (1%) or IL-1 (40 ng). After 5 hours for IL-1, or 24 hours for carrageen, the mice were sacrificed by asphyxia with CO2. The exudate which had developed was collected and used for the leucocyte count and for measurement of the mediators produced.

Setting [1] is: IL-1, share of cells in exudate, bindarit 0.5% in diet.

Read-outs that look alike come from different tables or passages of the source.

For `CC(C)(OCc1nn(Cc2ccccc2)c2ccccc12)C(=O)O` [Bindarit], the IL-8 was 30 ± 5.20 ng/mL in the assay on IL-8 (bindarit 25 μg/ml), 37 ± 5.36 ng/mL with IL-8 (bindarit 50 μg/ml) and 27 ± 5.8 ng/mL in the assay on IL-8 (bindarit 100 μg/ml). Moreover, the “levels of IL-8 produced (in words)” value in the assay with IL-8 (summary of Table 1) is reported as “without substantially influencing”. In addition, the MCP-1 in the assay with MCP-1 (bindarit 25 μg/ml) came out at 1.5 ± 0.38 ng/mL; with MCP-1 (bindarit 50 μg/ml), 1.6 ± 0.18 ng/mL; in the assay on MCP-1 (bindarit 100 μg/ml) it was 0.8 ± 0.04 ng/mL. In the assay on MCP-1 (summary of Table 1), the “production of MCP-1 induced by LPS (in words)” value was “significantly reduces”. The Exudate in the assay with mouse air pouch (IL-1 (40 ng), 5 hours) was determined as 1.00 ± 0.01 mL; with mouse air pouch (carrageen (1%), 24 hours), 0.90 ± 0.08 mL. The Leucocytes came out at 7.5 ± 2.21 with mouse air pouch (IL-1 (40 ng), 5 hours) and 4.5 ± 0.64 in the assay with mouse air pouch (carrageen (1%), 24 hours). In the assay on mouse air pouch (setting [1]), this compound returned a Monocytes of 6%. Moreover, the Polymorphonucleates with mouse air pouch (setting [1]) turned out to be 94%. Also, in the assay on mouse air pouch (summary of Table 2), the “number of infiltrated cells (leucocytes) (in words)” value is “significant reduction”. The “volume of exudate collected (in words)” value in the assay with mouse air pouch (summary of Table 2) is “without presenting a reduction”. Moreover, the “percentage of monocytes attracted in the sac (in words)” value in the assay on mouse air pouch (summary of Table 3) is “reduction”.
